Laboratory results as given in US20010033864A1, “Low dose entecavir formulation and use” (priority 2000, published 2001).

Experiments:
[1] = tested on: hepatitis B virus; assay: 28-day randomized, double-blind, placebo-controlled, dose-escalating trial of safety and antiviral activity in chronic hepatitis B; assay type: in vivo, human; details: for mean log reduction in hepatitis B virus DNA viral levels in the blood: human subjects with chronic HBV infection, day 28
Description: The safety and antiviral activity of entecavir given for 28 days to human subjects with chronic hepatitis B virus infection was studied in a randomized, double-blind, placebo-controlled, dose-escalating trial. […] The mean log reduction in hepatitis B virus DNA viral levels in the blood at day 28 were 2.21, 2.25, 2.81, and 2.42 for the 0.05, 0.1, 0.5 and 1.0 mg once daily doses of entecavir, respectively.

[2] = tested on: hepatitis B virus; assay: 24-week randomized, double-blind, lamivudine-controlled trial of safety and antiviral activity in chronic hepatitis B; assay type: in vivo, human; details: 24 weeks
Description: The safety and antiviral activity of three doses of entecavir (0.01 mg, 0.1 mg and 0.5 mg) given once daily for 24 weeks were studies in adults with chronic hepatitis B in a randomized, double-blind, lamivudine (100 mg QD) controlled trial.

SMILES: C=C1C(CO)C(O)C[C@@H]1n1cnc2c(=O)[nH]c(N)nc21 (stereo partly drawn) [Entecavir, [1S-(1α,3α, 4β)]-2-amino-1,9-dihydro-9-[4-hydroxy-3-(hydroxymethyl)-2-methylenecyclopentyl]-6H-purin-6-one]
- safety / tolerability ([1]; 0.05-1.0 mg once daily for 28 days, human subjects): well tolerated
- antiviral activity ([1]; all doses tested (0.05, 0.1, 0.5, 1.0 mg once daily), 28 days): potent antiviral activity
- mean log reduction in hepatitis B virus DNA viral levels in the blood ([1]; 0.05 mg once daily): 2.21 log
- mean log reduction in hepatitis B virus DNA viral levels in the blood ([1]; 0.1 mg once daily): 2.25 log
- mean log reduction in hepatitis B virus DNA viral levels in the blood ([1]; 0.5 mg once daily): 2.81 log
- mean log reduction in hepatitis B virus DNA viral levels in the blood ([1]; 1.0 mg once daily): 2.42 log
- safety / tolerability ([2]; all doses (0.01, 0.1, 0.5 mg once daily)): well tolerated
- antiviral activity ([2]; all three doses (0.01, 0.1, 0.5 mg once daily), adults with chronic hepatitis B): potent antiviral activity
- reductions in hepatitis B virus DNA viral levels in blood compared to lamivudine ([2]; two higher doses (0.1 mg and 0.5 mg once daily), vs lamivudine 100 mg QD): significantly greater reductions
